Laboratory results: BigSolDB 2.1

SMILES	solubility (mole fraction) (in 2-butanone, 298 K)	solubility (mole fraction) (in 2-butanone, 303 K)	solubility (mole fraction) (in 2-butanone, 308 K)	solubility (mole fraction) (in 2-butanone, 313 K)	solubility (mole fraction) (in 2-butanone, 318 K)	solubility (mole fraction) (in acetonitrile, 298 K)	solubility (mole fraction) (in acetonitrile, 303 K)	solubility (mole fraction) (in acetonitrile, 308 K)	solubility (mole fraction) (in acetonitrile, 313 K)	solubility (mole fraction) (in acetonitrile, 318 K)	solubility (mole fraction) (in isopropanol, 298 K)	solubility (mole fraction) (in isopropanol, 303 K)	solubility (mole fraction) (in isopropanol, 308 K)	solubility (mole fraction) (in isopropanol, 313 K)	solubility (mole fraction) (in isopropanol, 318 K)
c1ccc2cc3ccccc3cc2c1	0.00477	0.00591	0.00712	0.0085	0.0134	0.00066	0.00093	0.00135	0.00196	0.0027	0.00034	0.00044	0.00061	0.00081	0.00111
O=C1c2ccccc2C(=O)c2ccccc21	0.00054	0.00062	0.00075	0.00087	0.001	0.00022	0.00026	0.00032	0.00039	0.00048	8e-05	0.0001	0.00012	0.00015	0.00018
